Experimental data: PubChem BioAssay (NCI)
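96-well plates; 48 h exposure; 5 concentrations. Endpoints by linear interpolation between flanking doses. Not reached: highest tested concentration assigned. TGI denotes the concentration required for complete inhibition of growth.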

Tests used:
Assay in all cases: inhibition of tumour cell growth, NCI panel, 48 h
786-0 renal = test system: 786-0 renal
A498 renal = test system: A498 renal
A549 NSCLC = test system: A549 NSCLC
ACHN renal = test system: ACHN renal
CAKI-1 renal = test system: CAKI-1 renal
COLO 205 colon = test system: COLO 205 colon
DLD-1 colon = test system: DLD-1 colon
DMS 114 small cell lung = test system: DMS 114 small cell lung
DMS 273 small cell lung = test system: DMS 273 small cell lung
EKVX NSCLC = test system: EKVX NSCLC
HCC-2998 colon = test system: HCC-2998 colon
HCT-116 colon = test system: HCT-116 colon
HCT-15 colon = test system: HCT-15 colon
HL-60(TB) leukemia = test system: HL-60(TB) leukemia
HOP-62 NSCLC = test system: HOP-62 NSCLC
HT29 colon = test system: HT29 colon
IGROV1 ovarian = test system: IGROV1 ovarian
K-562 leukemia = test system: K-562 leukemia
KM12 colon = test system: KM12 colon
KM20L2 colon = test system: KM20L2 colon
LOX IMVI melanoma = test system: LOX IMVI melanoma
M14 melanoma = test system: M14 melanoma
M19-MEL melanoma = test system: M19-MEL melanoma
MALME-3M melanoma = test system: MALME-3M melanoma
MOLT-4 leukemia = test system: MOLT-4 leukemia
NCI-H226 lung = test system: NCI-H226 lung
NCI-H23 lung = test system: NCI-H23 lung
NCI-H460 lung = test system: NCI-H460 lung
OVCAR-3 ovarian = test system: OVCAR-3 ovarian
OVCAR-4 ovarian = test system: OVCAR-4 ovarian
OVCAR-5 ovarian = test system: OVCAR-5 ovarian
OVCAR-8 ovarian = test system: OVCAR-8 ovarian
RPMI-8226 leukemia = test system: RPMI-8226 leukemia
RXF 393 renal = test system: RXF 393 renal
SF-268 CNS = test system: SF-268 CNS
SF-295 CNS = test system: SF-295 CNS
SF-539 CNS = test system: SF-539 CNS
SK-MEL-2 melanoma = test system: SK-MEL-2 melanoma
SK-MEL-28 melanoma = test system: SK-MEL-28 melanoma
SK-MEL-5 melanoma = test system: SK-MEL-5 melanoma
SK-OV-3 ovarian = test system: SK-OV-3 ovarian
SN12C renal = test system: SN12C renal
SNB-19 CNS = test system: SNB-19 CNS
SNB-75 CNS = test system: SNB-75 CNS
SNB-78 CNS = test system: SNB-78 CNS
SR leukemia = test system: SR leukemia
SW-620 colon = test system: SW-620 colon
TK-10 renal = test system: TK-10 renal
U251 CNS = test system: U251 CNS
UACC-257 melanoma = test system: UACC-257 melanoma
UO-31 renal = test system: UO-31 renal
XF 498 CNS = test system: XF 498 CNS
CCRF-CEM leukemia = test system: CCRF-CEM leukemia
HOP-18 NSCLC = test system: HOP-18 NSCLC
HOP-92 NSCLC = test system: HOP-92 NSCLC
LXFL 529 NSCLC = test system: LXFL 529 NSCLC
NCI-H522 lung = test system: NCI-H522 lung
UACC-62 melanoma = test system: UACC-62 melanoma

Measured: TGI

COC(=O)Cc1cc(=O)n2c3ccccc3n(C)c2c1C#N
not listed: CCRF-CEM leukemia | HOP-18 NSCLC | HOP-92 NSCLC | LXFL 529 NSCLC | NCI-H522 lung | UACC-62 melanoma
> 100 µM: all other assays above

Nc1nc(Cl)c2ncn(CCCC(c3ccccc3)P(=O)(O)O)c2n1 (centres undefined)
not listed: EKVX NSCLC | MOLT-4 leukemia | NCI-H226 lung | OVCAR-4 ovarian | RXF 393 renal | XF 498 CNS
> 100 µM: all other assays above
